Measurements taken from PubChem BioAssay (NCI).
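In this assay, cells in 96-well plates receive the compound at five concentrations for 48 hours. Endpoints are linearly interpolated between the surrounding concentrations. Here, GI50 denotes the concentration required for 50% inhibition of growth. The concentration for full growth arrest is given as TGI.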

What was measured:
Test in all cases: NCI-60 cell line screen, 48 h
OVCAR-8 ovarian = system: OVCAR-8 ovarian
K-562 leukemia = system: K-562 leukemia
TK-10 renal = system: TK-10 renal
U251 CNS = system: U251 CNS
M14 melanoma = system: M14 melanoma
HOP-92 NSCLC = system: HOP-92 NSCLC
RPMI-8226 leukemia = system: RPMI-8226 leukemia
PC-3 prostate = system: PC-3 prostate
786-0 renal = system: 786-0 renal
NCI-H522 lung = system: NCI-H522 lung
MOLT-4 leukemia = system: MOLT-4 leukemia
HCC-2998 colon = system: HCC-2998 colon
ACHN renal = system: ACHN renal
HS 578T breast = system: HS 578T breast
UACC-62 melanoma = system: UACC-62 melanoma
NCI-H226 lung = system: NCI-H226 lung
SK-MEL-28 melanoma = system: SK-MEL-28 melanoma
A549 NSCLC = system: A549 NSCLC
MDA-MB-435 = system: MDA-MB-435
SK-OV-3 ovarian = system: SK-OV-3 ovarian
A498 renal = system: A498 renal
MALME-3M melanoma = system: MALME-3M melanoma
RXF 393 renal = system: RXF 393 renal
HOP-62 NSCLC = system: HOP-62 NSCLC
HT29 colon = system: HT29 colon
SF-539 CNS = system: SF-539 CNS
SK-MEL-2 melanoma = system: SK-MEL-2 melanoma
HL-60(TB) leukemia = system: HL-60(TB) leukemia
OVCAR-3 ovarian = system: OVCAR-3 ovarian
NCI-H23 lung = system: NCI-H23 lung
SNB-19 CNS = system: SNB-19 CNS
BT-549 breast = system: BT-549 breast
UACC-257 melanoma = system: UACC-257 melanoma
SN12C renal = system: SN12C renal
DU-145 prostate = system: DU-145 prostate
SK-MEL-5 melanoma = system: SK-MEL-5 melanoma
IGROV1 ovarian = system: IGROV1 ovarian
LOX IMVI melanoma = system: LOX IMVI melanoma
OVCAR-5 ovarian = system: OVCAR-5 ovarian
SNB-75 CNS = system: SNB-75 CNS
OVCAR-4 ovarian = system: OVCAR-4 ovarian
EKVX NSCLC = system: EKVX NSCLC
KM12 colon = system: KM12 colon
UO-31 renal = system: UO-31 renal
HCT-15 colon = system: HCT-15 colon
SF-295 CNS = system: SF-295 CNS
SW-620 colon = system: SW-620 colon
MCF7 breast = system: MCF7 breast
NCI-H460 lung = system: NCI-H460 lung
MDA-MB-231 breast = system: MDA-MB-231 breast
CAKI-1 renal = system: CAKI-1 renal
T-47D breast = system: T-47D breast
COLO 205 colon = system: COLO 205 colon
SF-268 CNS = system: SF-268 CNS
HCT-116 colon = system: HCT-116 colon
NCI/ADR-RES ovarian = system: NCI/ADR-RES ovarian
CCRF-CEM leukemia = system: CCRF-CEM leukemia

SMILES: COc1cc(/C=C/C(=O)c2ccc(F)cc2)ccc1OCCCN1CCN(CC(=O)Nc2ccc(Cl)cc2C(=O)c2ccccc2Cl)CC1
- GI50 (OVCAR-8 ovarian): 11.7 µM
- TGI (OVCAR-8 ovarian): 68.1 µM
- GI50 (K-562 leukemia): 3.6 µM
- TGI (K-562 leukemia): > 100 µM
- GI50 (TK-10 renal): 10.4 µM
- TGI (TK-10 renal): 26.1 µM
- GI50 (U251 CNS): 5.01 µM
- TGI (U251 CNS): 17.3 µM
- GI50 (M14 melanoma): 3.4 µM
- TGI (M14 melanoma): 13.3 µM
- GI50 (HOP-92 NSCLC): 1.38 µM
- TGI (HOP-92 NSCLC): 10.3 µM
- GI50 (RPMI-8226 leukemia): 2 µM
- TGI (RPMI-8226 leukemia): 5.46 µM
- GI50 (PC-3 prostate): 5.06 µM
- TGI (PC-3 prostate): 45.7 µM
- GI50 (786-0 renal): 3.86 µM
- TGI (786-0 renal): 15.2 µM
- GI50 (NCI-H522 lung): 14.4 µM
- TGI (NCI-H522 lung): 33.7 µM
- GI50 (MOLT-4 leukemia): 3.23 µM
- TGI (MOLT-4 leukemia): > 100 µM
- GI50 (HCC-2998 colon): 16.6 µM
- TGI (HCC-2998 colon): 40.1 µM
- GI50 (ACHN renal): 12.5 µM
- TGI (ACHN renal): 32.3 µM
- GI50 (HS 578T breast): 7.01 µM
- TGI (HS 578T breast): 46.3 µM
- GI50 (UACC-62 melanoma): 10.4 µM
- TGI (UACC-62 melanoma): 22.9 µM
- GI50 (NCI-H226 lung): 18.4 µM
- TGI (NCI-H226 lung): 37.2 µM
- GI50 (SK-MEL-28 melanoma): 3.68 µM
- TGI (SK-MEL-28 melanoma): 12.6 µM
- GI50 (A549 NSCLC): 15.9 µM
- TGI (A549 NSCLC): > 100 µM
- GI50 (MDA-MB-435): 8.19 µM
- TGI (MDA-MB-435): 22.5 µM
- GI50 (SK-OV-3 ovarian): 17.4 µM
- TGI (SK-OV-3 ovarian): 44.2 µM
- GI50 (A498 renal): 29.4 µM
- TGI (A498 renal): > 100 µM
- GI50 (MALME-3M melanoma): 4.23 µM
- TGI (MALME-3M melanoma): 15.7 µM
- GI50 (RXF 393 renal): 2.84 µM
- TGI (RXF 393 renal): 15.8 µM
- GI50 (HOP-62 NSCLC): 15.5 µM
- TGI (HOP-62 NSCLC): 31.9 µM
- GI50 (HT29 colon): 2.05 µM
- TGI (HT29 colon): 10.4 µM
- GI50 (SF-539 CNS): 10.2 µM
- TGI (SF-539 CNS): 23.3 µM
- GI50 (SK-MEL-2 melanoma): 12.6 µM
- TGI (SK-MEL-2 melanoma): 32.1 µM
- GI50 (HL-60(TB) leukemia): 4.23 µM
- TGI (HL-60(TB) leukemia): 25.9 µM
- GI50 (OVCAR-3 ovarian): 11.3 µM
- TGI (OVCAR-3 ovarian): 27.2 µM
- GI50 (NCI-H23 lung): 17.4 µM
- TGI (NCI-H23 lung): > 100 µM
- GI50 (SNB-19 CNS): 18.9 µM
- TGI (SNB-19 CNS): 49.2 µM
- GI50 (BT-549 breast): 10.8 µM
- TGI (BT-549 breast): 26.2 µM
- GI50 (UACC-257 melanoma): 9.51 µM
- TGI (UACC-257 melanoma): 47.9 µM
- GI50 (SN12C renal): 12.7 µM
- TGI (SN12C renal): 44.3 µM
- GI50 (DU-145 prostate): 29.8 µM
- TGI (DU-145 prostate): > 100 µM
- GI50 (SK-MEL-5 melanoma): 3.42 µM
- TGI (SK-MEL-5 melanoma): 14.7 µM
- GI50 (IGROV1 ovarian): 6.17 µM
- TGI (IGROV1 ovarian): 41.6 µM
- GI50 (LOX IMVI melanoma): 3.97 µM
- TGI (LOX IMVI melanoma): 14.6 µM
- GI50 (OVCAR-5 ovarian): 13.4 µM
- TGI (OVCAR-5 ovarian): > 100 µM
- GI50 (SNB-75 CNS): 6.05 µM
- TGI (SNB-75 CNS): 34.1 µM
- GI50 (OVCAR-4 ovarian): 9.48 µM
- TGI (OVCAR-4 ovarian): 34.5 µM
- GI50 (EKVX NSCLC): 31.3 µM
- TGI (EKVX NSCLC): > 100 µM
- GI50 (KM12 colon): 5.58 µM
- TGI (KM12 colon): 22.2 µM
- GI50 (UO-31 renal): 2.45 µM
- TGI (UO-31 renal): 20 µM
- GI50 (HCT-15 colon): 4.09 µM
- TGI (HCT-15 colon): 19.5 µM
- GI50 (SF-295 CNS): 5.57 µM
- TGI (SF-295 CNS): 19 µM
- GI50 (SW-620 colon): 2.73 µM
- TGI (SW-620 colon): 10.7 µM
- GI50 (MCF7 breast): 2.69 µM
- TGI (MCF7 breast): 12.1 µM
- GI50 (NCI-H460 lung): 4.47 µM
- TGI (NCI-H460 lung): > 100 µM
- GI50 (MDA-MB-231 breast): 11.6 µM
- TGI (MDA-MB-231 breast): 27.1 µM
- GI50 (CAKI-1 renal): 11 µM
- TGI (CAKI-1 renal): 32.5 µM
- GI50 (T-47D breast): 21.4 µM
- TGI (T-47D breast): > 100 µM
- GI50 (COLO 205 colon): 4.47 µM
- TGI (COLO 205 colon): 23.8 µM
- GI50 (SF-268 CNS): 16.9 µM
- TGI (SF-268 CNS): > 100 µM
- GI50 (HCT-116 colon): 2.23 µM
- TGI (HCT-116 colon): 11.1 µM
- GI50 (NCI/ADR-RES ovarian): 13 µM
- TGI (NCI/ADR-RES ovarian): > 100 µM
- GI50 (CCRF-CEM leukemia): 2.65 µM
- TGI (CCRF-CEM leukemia): 9.3 µM
